From US20040096423A1, “Use of a triple combination comprising a 5ht3 antagonist, a 5ht4agonist and a laxative for promoting intestinal lavage” (priority 2000, published 2004)
One block for each compound: values may come before it.

How the values were obtained:
[1] = test system: dogs; assay: Measurement of onset of liquid stool in dogs challenged with KleanPrep; format: in vivo, dog; conditions: for ED50: Canis lupus familiaris, read-out: ED50 for liquid stools within 6 hours after administration of KleanPrep
Method: Measurement of Onset of Liquid Stool
The dogs were orally or subcutaneously pretreated with test compounds or distilled water (0.5 ml/kg) and 1 hour later challenged by gavage with KleanPrep™ (standard volume: 2×200 ml at a 15 minutes interval). The time interval at which the first liquid stool occurred was noted (in minutes after the first administration of KleanPrep™) up to 6 hours after challenge.
The KleanPrep™ preparation consisted of polyethyleneglycol 3350 (59.000 g/l), sodium sulphate (5.685 g/l), sodium hydrogencarbonate (1.685 g/l), sodium chloride (1.465 g/l), potassium chloride (0.7425 g/l), aspartate (0.0494 g/l) and vanilla (0.3291 g/l).
In a pilot study on five dogs, large volumes of KleanPrep™ (1400, 1400, 1800, 2800, 2800 ml) and relatively long time intervals (95, 101, 124, 211 and 305 minutes after KleanPrep™) were required to obtain liquid stools within an observation period of 6 hours. In the present experiments, a standard volume of 400 ml KleanPrep™ solution (2×200 ml at a 15 minutes interval) was used. Under these conditions, liquid stools were not observed up to 6 hours after KleanPrep™, neither in 40 control dogs pretreated with a single dose of distilled water (0.5 ml/kg, p.o., −1 hour), nor in 35 control dogs pretreated with two doses of distilled water (0.5 ml/kg, p.o., −1 hour) immediately after each other, nor in 10 dogs pretreated with a dose of distilled water (0.5 ml/kg, p.o., −1 hour) and a dose of saline (0.5 ml/kg, s.c., −1 hour), nor in 5 dogs treated with two doses of distilled water (0.5 ml/kg, p.o., −1 hour) and a dose of saline (0.5 ml/kg, s.c., −1 hour).

[2] = target: T1, 5HT4 receptor (Cavia porcellus, UniProt O70528); assay: Electrically stimulated guinea-pig ileum longitudinal muscle-myenteric plexus strips (titled in vitro binding affinity for the 5HT4 receptor); format: cell-based; conditions: submaximal electrical stimulation
T1 construct: The longitudinal muscle layer with myenteric plexus was removed; from tissue; host or cells: guinea-pig ileum longitudinal muscle with myenteric plexus
From the text: Dunkin-Hartley guinea-pigs of either sex (weighing between 600-900 g) were killed by decapitation. The ileum was removed and cleansed with warmed and oxygenated Krebs-Henseleit solution. Parts of the ileum (15 cm) were slipped over a glass pipette. The longitudinal muscle layer with myenteric plexus was removed by means of a cotton thread moistened with Krebs solution. Strips with a length of 8 cm were folded and these strips (4 cm) were mounted between two platinum electrodes (8 cm length, 0.5 cm apart). […] The preparations were excited with single rectangular stimuli [1 ms; 0.1 Hz; submaximal response (current leading to 80% of maximal response), from a programmable stimulator (Janssen Scientific Instruments Division)]. Contractions were measured isometrically (Statham UC2, Janssen Scientific Instruments amplifier, Kipp BD-9 pen-recorder). During the stabilization period of 30 minutes, the strips were repeatedly stretched, in order to obtain a steady state tension of 1.5 g. Before starting the electrical stimulation, a cumulative concentration response curve of acetylcholine (3.10^−9, 10^−8, 3.10^−8 and 10^−7 M) was given. The bath fluid was replaced with fresh Krebs solution and the strips were allowed to stabilize for another 30 minutes. Subsequently, the strips were stimulated electrically (power stimulator) at a frequency of 0.1 Hz for 1 ms. […]

[3] = of 35 dogs, Compound A 0.01 mg/kg p.o. + distilled water, 1 h before KleanPrep
[4] = dogs pretreated with Compound A 0.01 mg/kg, 5HT4 agonist co-administered, + KleanPrep
[5] = dogs pretreated with Compound A 0.01 mg/kg, 5HT4 agonist co-administered, + KleanPrep, shortest median reached (down to)
[6] = dogs, 5HT4 agonist alone 1 h before KleanPrep 2×200 ml

T1 sequence (O70528 whole entry): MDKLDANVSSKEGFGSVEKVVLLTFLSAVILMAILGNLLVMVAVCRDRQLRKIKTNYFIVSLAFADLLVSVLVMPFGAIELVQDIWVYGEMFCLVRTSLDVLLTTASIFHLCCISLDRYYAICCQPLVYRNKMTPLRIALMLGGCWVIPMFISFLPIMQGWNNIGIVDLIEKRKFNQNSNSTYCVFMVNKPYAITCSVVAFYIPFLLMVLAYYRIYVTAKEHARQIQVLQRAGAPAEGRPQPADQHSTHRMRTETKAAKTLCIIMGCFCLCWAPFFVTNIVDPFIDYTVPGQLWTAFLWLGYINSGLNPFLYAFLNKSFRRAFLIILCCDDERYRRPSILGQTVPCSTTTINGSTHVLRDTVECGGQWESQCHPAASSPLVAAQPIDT

Structure (SMILES): CO[C@@H]1CN(CCCNc2nccc(=O)[nH]2)CC[C@@H]1NC(=O)c1cc(Cl)c(N)c2c1OC(C)(C)C2 (relative stereo) [Compound A, (−)-cis-4-amino-5-chloro-2,3-dihydro-N-[1-[3-[(3,4-dihydro-4-oxo-2-pyrimidinyl)-amino]propyl]-3-methoxy-4-piperidinyl]-2,2-dimethyl-7-benzofurancarboxamide]
median onset of the first liquid stool after administration of KleanPrep ([1]; dogs, Compound A 0.01 mg/kg p.o. + KleanPrep, no 5HT4 agonist (control)): 125 min
number of dogs displaying liquid stools within 1 hour [1, 3]: two
number of dogs displaying liquid stools within 6 hours [1, 3]: Thirty-three

EC50 [2]: 1.6 nM
Structure (SMILES): COCCCN1CC[C@@H](CNC(=O)c2cc(Cl)c(N)c3c2OC(C)(C)C3)[C@H](O)C1 [Compound B, (3S-trans)-4-amino-5-chloro-2,3-dihydro-N-[[3-hydroxy-1-(3-methoxypropyl)-4-piperidinyl]methyl]-2,2-dimethyl-7-benzofuran-carboxamide]
ED50 for liquid stools within 1 hour [1, 4]: 0.0014 mg/kg
median onset of the first liquid stool after administration of KleanPrep [1, 5]: 29 min
dose up to which liquid stools were not induced over the 6 hour observation period [1, 6]: > 2.5 mg/kg

Structure (SMILES): COc1cc(N)c(Cl)cc1C(=O)NC1CCN(CCCOc2ccc(F)cc2)CC1OC (centres unmarked) [cisapride]
ED50 [1, 6]: 0.89 mg/kg
ED50 for liquid stools within 1 hour [1, 4]: 0.056 mg/kg
median onset of the first liquid stool after administration of KleanPrep [1, 5]: 24 min

Structure (SMILES): COCCCN1CCC(NC(=O)c2cc(Cl)c(N)c3c2OCC3)CC1 [prucalopride]
ED50 [1, 6]: 2.3 mg/kg
ED50 for liquid stools within 1 hour [1, 4]: 0.22 mg/kg
median onset of the first liquid stool after administration of KleanPrep [1, 5]: 32 min
dose up to which liquid stools within 1 hour were not obtained [1, 6]: > 5 mg/kg
